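96-well plates; 48 h exposure; 5 concentrations. Endpoints by linear interpolation between flanking doses. Not reached: highest tested concentration assigned. The concentration for full growth arrest is given as TGI.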
Assays:
Experiment in all cases: inhibition of tumour cell growth, NCI panel, 48 h
[1] = tested on: CAKI-1 renal
[2] = tested on: DU-145 prostate
[3] = tested on: UACC-257 melanoma
[4] = tested on: MALME-3M melanoma
[5] = tested on: HCT-116 colon
[6] = tested on: MOLT-4 leukemia
[7] = tested on: SNB-19 CNS
[8] = tested on: NCI-H522 lung
[9] = tested on: SF-268 CNS
[10] = tested on: SNB-75 CNS
[11] = tested on: MDA-MB-435
[12] = tested on: LOX IMVI melanoma
[13] = tested on: HOP-92 NSCLC
[14] = tested on: EKVX NSCLC
[15] = tested on: OVCAR-4 ovarian
[16] = tested on: OVCAR-8 ovarian
[17] = tested on: ACHN renal
[18] = tested on: OVCAR-3 ovarian
[19] = tested on: HOP-62 NSCLC
[20] = tested on: RXF 393 renal
[21] = tested on: UO-31 renal
[22] = tested on: MCF7 breast
[23] = tested on: NCI-H460 lung
[24] = tested on: UACC-62 melanoma
[25] = tested on: RPMI-8226 leukemia
[26] = tested on: SN12C renal
[27] = tested on: NCI-H23 lung
[28] = tested on: MDA-MB-231 breast
[29] = tested on: SR leukemia
[30] = tested on: M14 melanoma
[31] = tested on: SW-620 colon
[32] = tested on: KM12 colon
[33] = tested on: HT29 colon
[34] = tested on: 786-0 renal
[35] = tested on: NCI/ADR-RES ovarian
[36] = tested on: A498 renal
[37] = tested on: SK-OV-3 ovarian
[38] = tested on: TK-10 renal
[39] = tested on: SK-MEL-28 melanoma
[40] = tested on: IGROV1 ovarian
[41] = tested on: T-47D breast
[42] = tested on: BT-549 breast
[43] = tested on: K-562 leukemia
[44] = tested on: HS 578T breast
[45] = tested on: OVCAR-5 ovarian
[46] = tested on: SK-MEL-2 melanoma
[47] = tested on: SF-295 CNS
[48] = tested on: HCT-15 colon
[49] = tested on: A549 NSCLC
[50] = tested on: PC-3 prostate
[51] = tested on: HCC-2998 colon
[52] = tested on: U251 CNS
[53] = tested on: HL-60(TB) leukemia
[54] = tested on: NCI-H226 lung
[55] = tested on: COLO 205 colon
[56] = tested on: SK-MEL-5 melanoma
[57] = tested on: SF-539 CNS
[58] = tested on: CCRF-CEM leukemia

For `CCC(CN(C)C)C(=O)c1ccco1` (stereo unspecified), the TGI [1] was greater than 100 µM, the TGI [2] was greater than 100 µM and the TGI [3] was greater than 100 µM. The TGI [4] was greater than 100 µM, the TGI [5] was greater than 100 µM and the TGI [6] was 96.8 µM. The TGI [7] was greater than 100 µM, the TGI [8] was 35.6 µM and the TGI [9] was greater than 100 µM. The TGI [10] was greater than 100 µM, the TGI [11] was greater than 100 µM and the TGI [12] was greater than 100 µM. For the same molecule, the TGI [13] was greater than 100 µM, the TGI [14] was greater than 100 µM and the TGI [15] was greater than 100 µM. The TGI [16] was greater than 100 µM, the TGI [17] was greater than 100 µM and the TGI [18] was greater than 100 µM. For the same molecule, the TGI [19] was greater than 100 µM, the TGI [20] was greater than 100 µM and the TGI [21] was greater than 100 µM. For the same molecule, the TGI [22] was greater than 100 µM, the TGI [23] was greater than 100 µM and the TGI [24] was greater than 100 µM. For the same molecule, the TGI [25] was greater than 100 µM, the TGI [26] was greater than 100 µM and the TGI [27] was greater than 100 µM. For the same molecule, the TGI [28] was greater than 100 µM, the TGI [29] was greater than 100 µM and the TGI [30] was greater than 100 µM. The TGI [31] was greater than 100 µM, the TGI [32] was greater than 100 µM and the TGI [33] was greater than 100 µM. For the same molecule, the TGI [34] was greater than 100 µM, the TGI [35] was greater than 100 µM and the TGI [36] was greater than 100 µM. For the same molecule, the TGI [37] was greater than 100 µM, the TGI [38] was greater than 100 µM and the TGI [39] was greater than 100 µM. It also gave a TGI [40] greater than 100 µM, a TGI [41] greater than 100 µM and a TGI [42] greater than 100 µM. The TGI [43] was greater than 100 µM, the TGI [44] was greater than 100 µM and the TGI [45] was greater than 100 µM. The TGI [46] was greater than 100 µM, the TGI [47] was greater than 100 µM and the TGI [48] was greater than 100 µM. It also gave a TGI [49] greater than 100 µM, a TGI [50] greater than 100 µM and a TGI [51] greater than 100 µM. For the same molecule, the TGI [52] was greater than 100 µM.
`O=C(CC(Cl)(Cl)C(Cl)(Cl)Cl)c1ccccc1` was tested, and the TGI [1] was 4.39 µM, the TGI [2] was 15.1 µM and the TGI [53] was 29.9 µM. For the same molecule, the TGI [3] was 3.81 µM, the TGI [4] was 8.91 µM and the TGI [5] was 4.91 µM. The TGI [6] was 5.02 µM, the TGI [7] was 39.2 µM and the TGI [8] was 7.3 µM. It also gave a TGI [9] of 55.4 µM, a TGI [10] of 29.3 µM and a TGI [11] of 5.34 µM. It also gave a TGI [54] of 16.2 µM, a TGI [12] of 3.74 µM and a TGI [13] of 59.5 µM. It also gave a TGI [15] of 5.67 µM, a TGI [16] of 8.53 µM and a TGI [17] of 5.29 µM. For the same molecule, the TGI [18] was 4.33 µM, the TGI [19] was 16.4 µM and the TGI [55] was 13.2 µM. For the same molecule, the TGI [20] was 4.25 µM, the TGI [21] was 14.5 µM and the TGI [22] was 23.6 µM. The TGI [23] was 32.5 µM, the TGI [24] was 6.56 µM and the TGI [25] was 6.09 µM. It also gave a TGI [26] of 3.09 µM, a TGI [56] of 24.3 µM and a TGI [27] of 20.5 µM. For the same molecule, the TGI [57] was 31.3 µM, the TGI [28] was 5.48 µM and the TGI [29] was 4.37 µM. It also gave a TGI [30] of 7.4 µM, a TGI [31] of 12.2 µM and a TGI [32] of 14.8 µM. It also gave a TGI [33] of 4.72 µM, a TGI [34] of 11.4 µM and a TGI [35] of 43.9 µM. The TGI [36] was 34.6 µM, the TGI [37] was 38.2 µM and the TGI [38] was 18.4 µM. For the same molecule, the TGI [39] was 5.3 µM, the TGI [40] was 18.3 µM and the TGI [41] was 7.08 µM. For the same molecule, the TGI [42] was 39.9 µM, the TGI [43] was 4.57 µM and the TGI [44] was 56.2 µM. For the same molecule, the TGI [45] was 25.8 µM, the TGI [46] was 32.3 µM and the TGI [47] was 19.4 µM. The TGI [48] was 4.56 µM, the TGI [49] was 39.1 µM and the TGI [50] was 29.1 µM. It also gave a TGI [52] of 18.3 µM.
In the case of `COc1ccc2[nH]c(C(O)(Cc3cccnc3)Cc3cccnc3)cc2c1`, the TGI [1] was greater than 100 µM, the TGI [2] was greater than 100 µM and the TGI [3] was greater than 100 µM. The TGI [4] was greater than 100 µM, the TGI [5] was greater than 100 µM and the TGI [6] was greater than 100 µM. The TGI [7] was greater than 100 µM, the TGI [9] was greater than 100 µM and the TGI [10] was greater than 100 µM. The TGI [11] was greater than 100 µM, the TGI [54] was greater than 100 µM and the TGI [13] was greater than 100 µM. The TGI [14] was greater than 100 µM, the TGI [15] was greater than 100 µM and the TGI [16] was greater than 100 µM. The TGI [17] was greater than 100 µM, the TGI [18] was greater than 100 µM and the TGI [19] was greater than 100 µM. It also gave a TGI [55] greater than 100 µM, a TGI [20] greater than 100 µM and a TGI [21] greater than 100 µM. It also gave a TGI [22] greater than 100 µM, a TGI [23] greater than 100 µM and a TGI [24] greater than 100 µM. The TGI [25] was greater than 100 µM, the TGI [26] was greater than 100 µM and the TGI [56] was greater than 100 µM. It also gave a TGI [27] greater than 100 µM, a TGI [28] greater than 100 µM and a TGI [29] greater than 100 µM. It also gave a TGI [30] greater than 100 µM, a TGI [31] greater than 100 µM and a TGI [32] greater than 100 µM. It also gave a TGI [33] greater than 100 µM, a TGI [34] greater than 100 µM and a TGI [35] greater than 100 µM. It also gave a TGI [36] greater than 100 µM, a TGI [37] greater than 100 µM and a TGI [38] greater than 100 µM. The TGI [39] was greater than 100 µM, the TGI [40] was greater than 100 µM and the TGI [58] was greater than 100 µM. It also gave a TGI [41] greater than 100 µM, a TGI [42] greater than 100 µM and a TGI [43] greater than 100 µM. The TGI [44] was greater than 100 µM, the TGI [45] was greater than 100 µM and the TGI [46] was greater than 100 µM. It also gave a TGI [47] greater than 100 µM, a TGI [48] greater than 100 µM and a TGI [49] greater than 100 µM. For the same molecule, the TGI [50] was greater than 100 µM, the TGI [51] was greater than 100 µM and the TGI [52] was greater than 100 µM.
